Patent US20070015742A1, “Porphyrin derivatives” (priority 2003, published 2007)
Where two headings read alike, the source gives them in different places.

Tests used:
[1] = molar extinction spectrum in THF; format: physicochemical
Description: The absorbance peaks and molar extinction coefficients are shown below in Table 2.
The Absorbance peaks and molar extinction coefficients are shown below in Table 3.
The absorbance peaks and molar extinction coefficients are shown below in Table 4.

[2] = tested on: mouse colon adenocarcinoma cell line Colo26; conditions: colo26 cells; for cell kill on irradiation: irradiation with 100 J cm^-2 white light; for photodynamic activity: 100 J cm^-2 white light
Description: Evaluation of in vitro Photodvnamic Tumour Cell Kill
The non-metastasing mouse colon adenocarcinoma cell line Colo26 was maintained in monolayer culture in RPMI 1640 glutamax medium supplemented with 10% heat-inactivated foetal calf serum, 100 U ml^−1 penicillin and 100 mg ml^−1 streptomycin. Cells grown to confluence were separated by trypsinisation to produce a suspension of 1.39 million cells per ml. A sample of 2.16 ml of this cell suspension was diluted to 50 ml with CM10 medium to give suspensions of 60,000 cells per ml. 100 μl of this suspension containing 6000 cells was added to each of the 60 inner wells of two 96-well culture plates. The outer wells of each plate were filled with sterile water. This was done to avoid errors resulting from the loss by evaporation of the rather small volumes of cell culture medium. The cells were incubated at 37° C. and 5% CO2 in a humidified incubator for 24 hours. A further 100 μl of cell culture medium containing a range of concentrations of each photosensitiser and tetrahydoflran (THF) vehicle was then added to groups of six wells. Tetrahydrofuran was chosen as solvent because it is relatively freely miscible with water and a pilot experiment had shown that incubation of cells for 48 hours with 0.5-1% THF had no effect on cell growth. An initial stock solution of 200 μl of each photosensitiser in THF was prepared and this solution used to prepare a series of sub-stock solutions in cell culture medium CM10 for addition to the tumour cell cultures.
After 20 hours of incubation with the cells, the medium containing the sensitiser and vehicle was removed and the cells washed once with buffer solution at 37° C. before the addition of fresh cell culture medium without photosensitiser or vrhicle. One of the two cell culture plates was then protected from light with aluminium foil and placed alongside the other plate which was irradiated with 100 joules cm^−2 of full-spectrum white light from an Applied Photophysics Irradiator. The light was delivered to the base of the 96-well plate through a glass platform (which served to filter short-wavelength ultraviolet light) as a 20 cm diameter spot. After irradiation both plates were returned to the incubator for a further 18 hours.
Cell growth inhibition following incubation with each photosensitiser and irradiation was determined using the European Union approved Neutral Red photocyiotoxicity protocol (Annexe II to Directive 2000/33/EC) adapted for visible light irradiation and the use of colo26 cells.

[3] = in toluene, reference standard whose quantum yield is known; cited from earlier work
[4] = concentrations of 0.5 μM and above

molar extinction coefficient ε ([1]; peak wavelength 418, THF)	molar extinction coefficient ε ([1]; peak wavelength 502, THF)	molar extinction coefficient ε ([1]; peak wavelength 532, THF)	molar extinction coefficient ε ([1]; peak wavelength 606, THF)	molar extinction coefficient ε ([1]; peak wavelength 668, THF)	molar extinction coefficient ε ([1]; peak wavelength 456, THF)	molar extinction coefficient ε ([1]; peak wavelength 537, THF)	molar extinction coefficient ε ([1]; peak wavelength 589, THF)	molar extinction coefficient ε ([1]; peak wavelength 659, THF)	molar extinction coefficient ε ([1]; peak wavelength 708, THF)	molar extinction coefficient ε ([1]; peak wavelength 724, THF)	SMILES	cell kill on irradiation ([2]; 2 μM and above)	photodynamic activity [2]	cell kill on irradiation [2, 4]	singlet oxygen quantum yield of reference [3]
300,000 1 mol^−1 cm^−1	29,800 1 mol^−1 cm^−1	5,300 1 mol^−1 cm^−1	4,900 1 mol^−1 cm^−1	3,000 1 mol^−1 cm^−1							CCCCCCCCCCCCCCCCOc1ccc(C2=C3C=CC(=N3)C(c3ccccc3)=c3ccc([nH]3)=CC3=NC(=CC4=CC=C2S4)C=C3)cc1 [porphyrin (8), 5-(4-hexadecyloxyphenyl)-10-(phenyl)-15,20-H-21-thiaporphryin]	approaching total cell kill	photodynamic activity	substantial cell kill	
											C=Cc1c(C)c2cc3nc(c4c5[n-]c(cc6nc(cc1[n-]2)C(C)=C6CC)c(C)c5C(=O)[C@@H]4C(=O)OC)[C@@H](CCC(=O)OC/C=C(\C)CCC[C@H](C)CCC[C@H](C)CCCC(C)C)[C@@H]3C.[Mg+2] [chlorophyll A]				0.6
					378,985 1 mol^−1 cm^−1	24,330 1 mol^−1 cm^−1	40,385 1 mol^−1 cm^−1	6,335 1 mol^−1 cm^−1	11,635 1 mol^−1 cm^−1	13,320 1 mol^−1 cm^−1	CCCCCCCCCCCCCCCCOc1ccc(-c2c3nc(c(-c4ccccc4)c4ccc([nH]4)c(C#Cc4ccccn4)c4nc(c(C#Cc5ccccn5)c5ccc2s5)C=C4)C=C3)cc1 [porphyrin (10), 5-(4-hexadecyloxyphenyl)-10-(phenyl)-15,20-(2-ethynylpyridine)-21-thiaporphyrin]	approaching total cell kill	photodynamic activity	substantial cell kill	
